Test results reported in patent US20260207450A1, “ANTI-DANDRUFF COMPOSITIONS” (Firmenich SA, priority 2022, published 2026).
Converted amounts (≈) assume the structure as drawn.

What was measured:
[1] = system: M. restricta ATCC MYA-4611; experiment: Disc-diffusion assay, perfumery materials in Shampoo Base B, M. restricta; type: cell-based, Malassezia restricta; settings: 0.25% perfumery material in 25% Shampoo Base B solution, 6 mm disc, 6 days
Source text: (§1) The present inventors sought to investigate how whether the anti-dandruff effect of compounds and compositions could be used in shampoo formulations. For this reason, they prepared two shampoo bases. Shampoo Base A is a composition with Sodium Laureth Sulfate and cocamidopropyl betaine as the primary ingredients, while Shampoo Base B is a composition with Ammonium Lauryl Sulfate and Ammonium Laureth Sulfate as primary ingredients. Anti-Malassezia effect of perfumery materials in shampoo was determined using disc-diffusion assay, based on the method of J Mycol Infect 2018; 23: 91-98. […] Aliquots (20 μL) of each sample solution was added to each disc. Agar plates were incubated at 30° C. for 6 days. After incubation, diameters of the clear inhibition zones around the discs were measured.

[2] = system: M. globosa ATCC MYA-4612; experiment: Disc-diffusion assay, perfumery materials in Shampoo Base B, M. globosa; type: cell-based, Malassezia globosa; settings: 0.25% perfumery material in 25% Shampoo Base B solution, 6 mm disc, 6 days
Source text: as §1

[3] = system: Staphylococcus aureus ATCC 6538; experiment: MIC assay on Staphylococcus aureus ATCC 6538; type: cell-based; settings: Staphylococcus aureus, ATCC6538; TSB, 37° C., 24 h aerobically; dilutions 29 to 10000 ppm; read-out: MIC (ppm) S. aureus
Method: MIC assay for Staphylococcus aureus ATCC 6538 is based on Clinical Laboratory Standard Institute: CLSI/NCCLS M07-A8. Cell suspension of working cultures of S. aureus was prepared following the instructions of culture provider ATCC, USA.
(§2) A total of 26 perfumery materials were examined for an inhibition effect on Malassezia furfur and Staphylococcus aureus.

[4] = system: Malassezia furfur DSM 6170; experiment: MIC assay on Malassezia furfur DSM 6170 (resazurin); type: cell-based; settings: Malassezia furfur, DSM6170; 30° C., 48 h aerobically; dilutions 29 to 10000 ppm
Method: The MIC assay for Malassezia furfur DSM 6170 was modified based on the method in Journal of Clinical Microbiology 2017, Vol 55: 1883-1893. In brief, working culture was prepared from stock cultures stored at −80° C. to obtain a cell suspension as the inoculum. Serial dilutions of samples, 29 to 10000 ppm, were tested to determine the MIC values for growth of Malassezia furfur DSM 6170 after at 30° C. for 48 h aerobically. Resazurin was used as growth indicator.
as §2

[5] = system: M. furfur DSM 6170; experiment: Disc-diffusion assay, perfumery materials in DMSO, M. furfur; type: cell-based, Malassezia furfur; settings: Malassezia furfur, DSM6170, 72 h
Method: (§3) Anti-Malassezia effect of perfumery materials in solvent in DMSO was determined using disc-diffusion assay, based on the method of J Mycol Infect 2018: 23: 91-98. In brief, working cultures of Malassezia strains were prepared from −80 C stock culture on mDixon agar plate (for M. furfur DSM 6170) or mLN agar plate (for M. restricta ATCC MYA-4611 and M. globosa ATCC MYA-4612), and cells were suspended in 0.9% saline, and spread onto mDixon or mLN agar surface to prepare lawn plate. Test samples solutions are prepared in DMSO to final concentrations of 0.2%, 1% or 2%. Discs (Whatman, 6 mm in diameter) were placed on inoculated agar plates with each Malassezia strains respectively, including M. furfur DSM 6170, M. restricta ATCC MYA-4611, and M. globosa ATCC MYA-4612. Aliquots (20 μL) of each sample solution was added to each disc. Agar plates were incubated at 30° C. for 3 days for M. furfur DSM 6170, and 6 days for M. restricta ATCC MYA-4611, and M. globosa ATCC MYA-4612. After incubation, diameters of the clear inhibition zones around the discs were measured. Inhibition zone greater than 6 mm are regarded as having anti-Malassezia effect.

[6] = system: M. restricta ATCC MYA-4611; experiment: Disc-diffusion assay, perfumery materials in DMSO, M. restricta; type: cell-based, Malassezia restricta; settings: Malassezia restricta, 144 h
Method: as §3

[7] = system: M. globosa ATCC MYA-4612; experiment: Disc-diffusion assay, perfumery materials in DMSO, M. globosa; type: cell-based, Malassezia globosa; settings: Malassezia globosa, 144 h
Method: as §3

[8] = system: M. furfur DSM 6170; experiment: Disc-diffusion assay, (2E,6Z)-2,6-nonadienal with anti-dandruff actives in DMSO, M. furfur; type: cell-based, Malassezia furfur; settings: 3 days
Method: The anti-Malassezia effect of perfumery materials in combination of anti-dandruff actives using the disk-diffusion assay, modified based on the method of J Mycol Infect 2018; 23: 91-98. working culture of M. furfur DSM 6170 was prepared from −80 C stock culture on mDixon agar plate, and cells were suspended in 0.9% saline, and spread onto mDixon agar surface to prepare lawn plates. Discs (Whatman, 6 mm in diameter) were placed on inoculated mDixon agar plates. Test sample solutions are prepared in DMSO. Aliquots (20 μL) of each sample solution was added to each disc. Agar plates were incubated at 30° C. for 3 days. After incubation, diameters of the clear inhibition zones around the discs were measured.

[9] = system: M. restricta; experiment: Disc-diffusion assay, combinations with piroctone olamine (PO) in DMSO, M. restricta; type: cell-based, Malassezia restricta; settings: 4 days, ratio greater than 1.0 = boosting effect
Method: Anti-Malassezia effect of combinations of PO and perfumery materials in solvent DMSO against M. restricta was determined using disc-diffusion assay as described above. Aliquots (20 μL) of each sample solution was added to each disc. Agar plates were incubated at 30° C. for 4 days. After incubation, diameters of the clear inhibition zones around the discs were measured. Ratio of inhibition zone diameter of each combination to that of PO only were calculated. […] Anti-Malassezia effect of combinations of PO and perfumery raw materials mixtures in solvent DMSO was determined using disc-diffusion assay, as described above. Aliquots (20 μL) of each sample solution was added to each disc. Agar plates were incubated at 30° C. for 4 days. After incubation, diameters of the clear inhibition zones around the discs were measured. Ratio of inhibition zone diameter of each combination to that of PO only were calculated.

[10] = system: M. restricta ATCC MYA-4611; experiment: Cylinder diffusion assay, hair conditioner base with 0.35% PO and mixtures, M. restricta; type: cell-based, Malassezia restricta; settings: conditioner containing 0.35% PO without mixture; 25% conditioner solution, 80 μL cylinder, 4 days
Method: A hair conditioner base was prepared. The main components included water, cetyl alcohol, MIRASIL® ADME-NP (water (and) amodimethicone (and) trideceth-6), stearyl alcohol, behentrimonium methosulfate (and) Isopropanol.
Anti-Malassezia effect of hair conditioners was determined using cylinder diffusion assay that was used for testing shampoos, as described above. In brief, working cultures of M. restricta ATCC MYA-4611 and inoculated as described in disc diffusion assay. Cylinders were placed on inoculated agar plates. Aliquots (80 μL) of each sample (25% conditioner solution) were added to each cylinder. Agar plates were incubated at 30° C. for 4 days. After incubation, diameters of the clear inhibition zones around the discs were measured.

Row | Structure (SMILES) | Inhibition zone (mm) M. restricta [1] [mm] | Inhibition zone (mm) M. globosa [2] [mm] | MIC [3] [µg/mL] | MIC [4] [µg/mL] | zone of inhibition at 2 % [5] [mm] | zone of inhibition at 0.2 % [6] [mm] | zone of inhibition at 1 % [6] [mm] | zone of inhibition at 2 % [6] [mm] | further results
1 | C=CCc1ccc(O)c(OC)c1 [2-methoxy-4-(2-propen-1-yl)phenol] | 7.3 | 8.2 | – | – | – | – | – | – | –
2 | CCCc1cccc(O)c1 [3-propylphenol] | 7.7 | 10.2 | – | – | – | – | – | – | –
3 | CC/C=C\CC/C=C/C=O [(2E,6Z)-2,6-nonadienal] | 11.1 | 12.8 | 233 (≈ 1690 µM) | 44 (≈ 318 µM) | 13.5 | 7.7 | > 40 | > 40 | zone of inhibition at 0.2 % [7]: 12.4 mm; zone of inhibition at 1 % [7]: > 40 mm; Inhibition zone (mm) on M. furfur ([8]; Table 5, 0.75% in DMSO, 6 mm disc): 7.6 mm; Inhibition zone (mm) on M. furfur ([8]; Table 6, 1% in DMSO): 11.4 mm; Inhibition zone (mm) on M. furfur ([8]; Table 7, 1% in DMSO): 14.1 mm; Ratio of inhibition zone diameter (0.2% PRM + 0.1% PO) to 0.1% PO [9]: 1.2; Ratio of inhibition zone diameter (0.5% PRM + 0.1% PO) to 0.1% PO [9]: 3.4
4 | Cc1cc(CC(C)CC(C)(C)C)n(O)c(=O)c1.NCCO (stereo not drawn) [Piroctone Olamine (PO), Piroctone Olamine] | – | – | – | – | – | – | – | – | Inhibition zone (mm) on M. furfur ([8]; Table 5, 0.19% in DMSO, 6 mm disc): 11.8 mm; Inhibition zone diameter (mm) against M. restricta [10]: No inhibition zone
5 | O=C/C=C/c1ccccc1 [cinnamaldehyde, (E)-3-phenyl-2-propenal] | – | – | 293 (≈ 2220 µM) | 99 (≈ 749 µM) | 16.5 | 8.4 | 34.5 | 33.3 | zone of inhibition at 1 % [7]: 17.6 mm; zone of inhibition at 2 % [7]: 27.4 mm; Ratio of inhibition zone diameter (0.2% PRM + 0.1% PO) to 0.1% PO [9]: 1.4; Ratio of inhibition zone diameter (0.2% PRM + 0.35% PO) to 0.35% PO [9]: 1.3; Ratio of inhibition zone diameter (0.5% PRM + 0.1% PO) to 0.1% PO [9]: 3.4
6 | CC(C)=CCC/C(C)=C/C=O [citral, (Z)-3,7-dimethyl-2,6-octadienal+(E)-3,7-dimethyl-2,6-octadienal] | – | – | 450 (≈ 2960 µM) | 222 (≈ 1460 µM) | 8.6 | 6.2 | 7.1 | > 40 | zone of inhibition at 0.2 % [7]: 6.2 mm; zone of inhibition at 2 % [7]: 8.7 mm; Ratio of inhibition zone diameter (1% PRM + 0.35% PO) to 0.35% PO [9]: 1.1
7 | CC(=O)N1CCN(c2ccc(OCC3COC(Cn4ccnc4)(c4ccc(Cl)cc4Cl)O3)cc2)CC1 (stereo not drawn) [ketoconazole] | – | – | – | – | – | – | – | – | Inhibition zone (mm) on M. furfur ([8]; Table 7, 0.1% in DMSO): 22.3 mm; Inhibition zone (mm) on M. furfur ([8]; Table 7, 0.2% in DMSO): 24.6 mm; Inhibition zone (mm) on M. furfur ([8]; Table 7, 0.3% in DMSO): 24.5 mm; Inhibition zone (mm) on M. furfur ([8]; Table 7, 0.4% in DMSO): 24.9 mm
